Experimental data reported in PubChem BioAssay (NCI).
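Following 48 hours of exposure in 96-well plates, responses at five concentrations were used to interpolate endpoints linearly. TGI marks complete inhibition of growth.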

System: SF-295 CNS
Assay: NCI anticancer screen, dose series, 48 h

Row | SMILES | TGI [µM]
1 | COC(=O)c1s/c(=N\C(=S)N(C)C)n(-c2ccccc2)c1C(=O)OC | > 100
2 | COc1ccc(/C=C2\CCC(CNc3cc(C)on3)C2=O)cc1 (stereo not drawn) | > 100
3 | COC(=O)C(Cc1c[nH]c2ccccc12)N=C1Nc2ccncc2S(=O)(=O)N1c1ccccc1 (stereo not drawn) | > 100
4 | O/N=C(\c1ccccc1)N1CCCCC1 | > 100

System: M14 melanoma
Assay: NCI anticancer screen, dose series, 48 h

Row | SMILES | TGI [µM]
5 | COc1cc(/C=C(\C#N)C(=O)c2ccccc2)ccc1OCc1ccccc1 | > 100
6 | C=C1C(=O)C23CC1C[C@H](OC(C)=O)[C@H]2C1(C)C(OC(C)=O)C[C@H](O)C(C)(C)[C@H]1C(=O)[C@@H]3OC(C)=O (stereo partly drawn) | 9.5
7 | O=C1NC(=O)C(Cc2ccccc2)(c2cccnc2)N1 (stereo not drawn) | > 100
8 | COC(=O)c1s/c(=N\C(=S)N(C)C)n(-c2ccccc2)c1C(=O)OC | > 100
9 | COc1ccc(/C=C2\CCC(CNc3cc(C)on3)C2=O)cc1 (stereo not drawn) | > 100
10 | COC(=O)C(Cc1c[nH]c2ccccc12)N=C1Nc2ccncc2S(=O)(=O)N1c1ccccc1 (stereo not drawn) | > 100
11 | O/N=C(\c1ccccc1)N1CCCCC1 | > 100

System: SK-MEL-28 melanoma
Assay: NCI anticancer screen, dose series, 48 h

Row | SMILES | TGI [µM]
12 | COc1cc(/C=C(\C#N)C(=O)c2ccccc2)ccc1OCc1ccccc1 | > 100
13 | C=C1C(=O)C23CC1C[C@H](OC(C)=O)[C@H]2C1(C)C(OC(C)=O)C[C@H](O)C(C)(C)[C@H]1C(=O)[C@@H]3OC(C)=O (stereo partly drawn) | 13.2
14 | O=C1NC(=O)C(Cc2ccccc2)(c2cccnc2)N1 (stereo not drawn) | > 100
15 | COC(=O)c1s/c(=N\C(=S)N(C)C)n(-c2ccccc2)c1C(=O)OC | > 100
16 | COc1ccc(/C=C2\CCC(CNc3cc(C)on3)C2=O)cc1 (stereo not drawn) | > 100
17 | COC(=O)C(Cc1c[nH]c2ccccc12)N=C1Nc2ccncc2S(=O)(=O)N1c1ccccc1 (stereo not drawn) | > 100

System: PC-3 prostate
Assay: NCI anticancer screen, dose series, 48 h

Row | SMILES | TGI [µM]
18 | C=C1C(=O)C23CC1C[C@H](OC(C)=O)[C@H]2C1(C)C(OC(C)=O)C[C@H](O)C(C)(C)[C@H]1C(=O)[C@@H]3OC(C)=O (stereo partly drawn) | 24.6
19 | O=C1NC(=O)C(Cc2ccccc2)(c2cccnc2)N1 (stereo not drawn) | > 100
20 | COc1ccc(/C=C2\CCC(CNc3cc(C)on3)C2=O)cc1 (stereo not drawn) | > 100
21 | COC(=O)C(Cc1c[nH]c2ccccc12)N=C1Nc2ccncc2S(=O)(=O)N1c1ccccc1 (stereo not drawn) | 54

System: BT-549 breast
Assay: NCI anticancer screen, dose series, 48 h

Row | SMILES | TGI [µM]
22 | C=C1C(=O)C23CC1C[C@H](OC(C)=O)[C@H]2C1(C)C(OC(C)=O)C[C@H](O)C(C)(C)[C@H]1C(=O)[C@@H]3OC(C)=O (stereo partly drawn) | 7.4
23 | O=C1NC(=O)C(Cc2ccccc2)(c2cccnc2)N1 (stereo not drawn) | > 100
24 | COc1ccc(/C=C2\CCC(CNc3cc(C)on3)C2=O)cc1 (stereo not drawn) | > 100
25 | COC(=O)C(Cc1c[nH]c2ccccc12)N=C1Nc2ccncc2S(=O)(=O)N1c1ccccc1 (stereo not drawn) | > 100

System: SNB-19 CNS
Assay: NCI anticancer screen, dose series, 48 h

Row | SMILES | TGI [µM]
26 | COc1cc(/C=C(\C#N)C(=O)c2ccccc2)ccc1OCc1ccccc1 | > 100
27 | C=C1C(=O)C23CC1C[C@H](OC(C)=O)[C@H]2C1(C)C(OC(C)=O)C[C@H](O)C(C)(C)[C@H]1C(=O)[C@@H]3OC(C)=O (stereo partly drawn) | 34.6
28 | O=C1NC(=O)C(Cc2ccccc2)(c2cccnc2)N1 (stereo not drawn) | > 100
29 | COC(=O)c1s/c(=N\C(=S)N(C)C)n(-c2ccccc2)c1C(=O)OC | > 100
30 | COc1ccc(/C=C2\CCC(CNc3cc(C)on3)C2=O)cc1 (stereo not drawn) | > 95.5
31 | COC(=O)C(Cc1c[nH]c2ccccc12)N=C1Nc2ccncc2S(=O)(=O)N1c1ccccc1 (stereo not drawn) | > 100
32 | O/N=C(\c1ccccc1)N1CCCCC1 | > 100

System: ACHN renal
Assay: NCI anticancer screen, dose series, 48 h

Row | SMILES | TGI [µM]
33 | COc1cc(/C=C(\C#N)C(=O)c2ccccc2)ccc1OCc1ccccc1 | > 100
34 | C=C1C(=O)C23CC1C[C@H](OC(C)=O)[C@H]2C1(C)C(OC(C)=O)C[C@H](O)C(C)(C)[C@H]1C(=O)[C@@H]3OC(C)=O (stereo partly drawn) | 14.1
35 | O=C1NC(=O)C(Cc2ccccc2)(c2cccnc2)N1 (stereo not drawn) | > 100
36 | COC(=O)c1s/c(=N\C(=S)N(C)C)n(-c2ccccc2)c1C(=O)OC | > 100
37 | COc1ccc(/C=C2\CCC(CNc3cc(C)on3)C2=O)cc1 (stereo not drawn) | > 100
38 | COC(=O)C(Cc1c[nH]c2ccccc12)N=C1Nc2ccncc2S(=O)(=O)N1c1ccccc1 (stereo not drawn) | > 100

System: KM12 colon
Assay: NCI anticancer screen, dose series, 48 h

Row | SMILES | TGI [µM]
39 | COc1cc(/C=C(\C#N)C(=O)c2ccccc2)ccc1OCc1ccccc1 | > 100
40 | C=C1C(=O)C23CC1C[C@H](OC(C)=O)[C@H]2C1(C)C(OC(C)=O)C[C@H](O)C(C)(C)[C@H]1C(=O)[C@@H]3OC(C)=O (stereo partly drawn) | 23.8
41 | O=C1NC(=O)C(Cc2ccccc2)(c2cccnc2)N1 (stereo not drawn) | > 100
42 | COC(=O)c1s/c(=N\C(=S)N(C)C)n(-c2ccccc2)c1C(=O)OC | > 100
43 | COc1ccc(/C=C2\CCC(CNc3cc(C)on3)C2=O)cc1 (stereo not drawn) | > 100
44 | COC(=O)C(Cc1c[nH]c2ccccc12)N=C1Nc2ccncc2S(=O)(=O)N1c1ccccc1 (stereo not drawn) | > 100
45 | O/N=C(\c1ccccc1)N1CCCCC1 | > 100

System: NCI/ADR-RES ovarian
Assay: NCI anticancer screen, dose series, 48 h

Row | SMILES | TGI [µM]
46 | C=C1C(=O)C23CC1C[C@H](OC(C)=O)[C@H]2C1(C)C(OC(C)=O)C[C@H](O)C(C)(C)[C@H]1C(=O)[C@@H]3OC(C)=O (stereo partly drawn) | 35.6
47 | O=C1NC(=O)C(Cc2ccccc2)(c2cccnc2)N1 (stereo not drawn) | > 100
48 | COc1ccc(/C=C2\CCC(CNc3cc(C)on3)C2=O)cc1 (stereo not drawn) | > 100
49 | COC(=O)C(Cc1c[nH]c2ccccc12)N=C1Nc2ccncc2S(=O)(=O)N1c1ccccc1 (stereo not drawn) | > 100

System: DMS 114 small cell lung
Assay: NCI anticancer screen, dose series, 48 h

Row | SMILES | TGI [µM]
50 | COc1cc(/C=C(\C#N)C(=O)c2ccccc2)ccc1OCc1ccccc1 | > 100
51 | COC(=O)c1s/c(=N\C(=S)N(C)C)n(-c2ccccc2)c1C(=O)OC | > 100
52 | O/N=C(\c1ccccc1)N1CCCCC1 | > 100

System: HS 578T breast
Assay: NCI anticancer screen, dose series, 48 h

Row | SMILES | TGI [µM]
53 | C=C1C(=O)C23CC1C[C@H](OC(C)=O)[C@H]2C1(C)C(OC(C)=O)C[C@H](O)C(C)(C)[C@H]1C(=O)[C@@H]3OC(C)=O (stereo partly drawn) | 15.3
54 | O=C1NC(=O)C(Cc2ccccc2)(c2cccnc2)N1 (stereo not drawn) | > 100
55 | COc1ccc(/C=C2\CCC(CNc3cc(C)on3)C2=O)cc1 (stereo not drawn) | > 100
56 | COC(=O)C(Cc1c[nH]c2ccccc12)N=C1Nc2ccncc2S(=O)(=O)N1c1ccccc1 (stereo not drawn) | > 100

System: M19-MEL melanoma
Assay: NCI anticancer screen, dose series, 48 h

Row | SMILES | TGI [µM]
57 | COc1cc(/C=C(\C#N)C(=O)c2ccccc2)ccc1OCc1ccccc1 | > 100
58 | COC(=O)c1s/c(=N\C(=S)N(C)C)n(-c2ccccc2)c1C(=O)OC | > 100

System: SF-268 CNS
Assay: NCI anticancer screen, dose series, 48 h

Row | SMILES | TGI [µM]
59 | C=C1C(=O)C23CC1C[C@H](OC(C)=O)[C@H]2C1(C)C(OC(C)=O)C[C@H](O)C(C)(C)[C@H]1C(=O)[C@@H]3OC(C)=O (stereo partly drawn) | 25.3
60 | O=C1NC(=O)C(Cc2ccccc2)(c2cccnc2)N1 (stereo not drawn) | > 100
61 | COC(=O)c1s/c(=N\C(=S)N(C)C)n(-c2ccccc2)c1C(=O)OC | > 100
62 | COc1ccc(/C=C2\CCC(CNc3cc(C)on3)C2=O)cc1 (stereo not drawn) | > 100
63 | COC(=O)C(Cc1c[nH]c2ccccc12)N=C1Nc2ccncc2S(=O)(=O)N1c1ccccc1 (stereo not drawn) | > 100
64 | O/N=C(\c1ccccc1)N1CCCCC1 | > 100

System: MOLT-4 leukemia
Assay: NCI anticancer screen, dose series, 48 h

Row | SMILES | TGI [µM]
65 | COc1cc(/C=C(\C#N)C(=O)c2ccccc2)ccc1OCc1ccccc1 | > 100
66 | C=C1C(=O)C23CC1C[C@H](OC(C)=O)[C@H]2C1(C)C(OC(C)=O)C[C@H](O)C(C)(C)[C@H]1C(=O)[C@@H]3OC(C)=O (stereo partly drawn) | 4.03
67 | O=C1NC(=O)C(Cc2ccccc2)(c2cccnc2)N1 (stereo not drawn) | > 100
68 | COC(=O)c1s/c(=N\C(=S)N(C)C)n(-c2ccccc2)c1C(=O)OC | > 100
69 | COc1ccc(/C=C2\CCC(CNc3cc(C)on3)C2=O)cc1 (stereo not drawn) | > 100
70 | COC(=O)C(Cc1c[nH]c2ccccc12)N=C1Nc2ccncc2S(=O)(=O)N1c1ccccc1 (stereo not drawn) | 35.1

System: KM20L2 colon
Assay: NCI anticancer screen, dose series, 48 h

Row | SMILES | TGI [µM]
71 | COc1cc(/C=C(\C#N)C(=O)c2ccccc2)ccc1OCc1ccccc1 | > 100
72 | COC(=O)c1s/c(=N\C(=S)N(C)C)n(-c2ccccc2)c1C(=O)OC | > 100
73 | O/N=C(\c1ccccc1)N1CCCCC1 | > 100

System: HOP-92 NSCLC
Assay: NCI anticancer screen, dose series, 48 h

Row | SMILES | TGI [µM]
74 | C=C1C(=O)C23CC1C[C@H](OC(C)=O)[C@H]2C1(C)C(OC(C)=O)C[C@H](O)C(C)(C)[C@H]1C(=O)[C@@H]3OC(C)=O (stereo partly drawn) | 7.84
75 | O=C1NC(=O)C(Cc2ccccc2)(c2cccnc2)N1 (stereo not drawn) | > 100
76 | COC(=O)c1s/c(=N\C(=S)N(C)C)n(-c2ccccc2)c1C(=O)OC | > 100
77 | COc1ccc(/C=C2\CCC(CNc3cc(C)on3)C2=O)cc1 (stereo not drawn) | > 100
78 | COC(=O)C(Cc1c[nH]c2ccccc12)N=C1Nc2ccncc2S(=O)(=O)N1c1ccccc1 (stereo not drawn) | 54.8
79 | O/N=C(\c1ccccc1)N1CCCCC1 | > 100

System: XF 498 CNS
Assay: NCI anticancer screen, dose series, 48 h

Row | SMILES | TGI [µM]
80 | COc1cc(/C=C(\C#N)C(=O)c2ccccc2)ccc1OCc1ccccc1 | > 100

System: SK-MEL-5 melanoma
Assay: NCI anticancer screen, dose series, 48 h

Row | SMILES | TGI [µM]
81 | COc1cc(/C=C(\C#N)C(=O)c2ccccc2)ccc1OCc1ccccc1 | > 100
82 | C=C1C(=O)C23CC1C[C@H](OC(C)=O)[C@H]2C1(C)C(OC(C)=O)C[C@H](O)C(C)(C)[C@H]1C(=O)[C@@H]3OC(C)=O (stereo partly drawn) | 27.4
83 | O=C1NC(=O)C(Cc2ccccc2)(c2cccnc2)N1 (stereo not drawn) | > 100
84 | COC(=O)c1s/c(=N\C(=S)N(C)C)n(-c2ccccc2)c1C(=O)OC | > 100
85 | COc1ccc(/C=C2\CCC(CNc3cc(C)on3)C2=O)cc1 (stereo not drawn) | > 100
86 | COC(=O)C(Cc1c[nH]c2ccccc12)N=C1Nc2ccncc2S(=O)(=O)N1c1ccccc1 (stereo not drawn) | 30

System: SN12C renal
Assay: NCI anticancer screen, dose series, 48 h

Row | SMILES | TGI [µM]
87 | COc1cc(/C=C(\C#N)C(=O)c2ccccc2)ccc1OCc1ccccc1 | > 100
88 | C=C1C(=O)C23CC1C[C@H](OC(C)=O)[C@H]2C1(C)C(OC(C)=O)C[C@H](O)C(C)(C)[C@H]1C(=O)[C@@H]3OC(C)=O (stereo partly drawn) | 15.1
89 | O=C1NC(=O)C(Cc2ccccc2)(c2cccnc2)N1 (stereo not drawn) | > 100
90 | COC(=O)c1s/c(=N\C(=S)N(C)C)n(-c2ccccc2)c1C(=O)OC | > 100
91 | COc1ccc(/C=C2\CCC(CNc3cc(C)on3)C2=O)cc1 (stereo not drawn) | > 100
92 | COC(=O)C(Cc1c[nH]c2ccccc12)N=C1Nc2ccncc2S(=O)(=O)N1c1ccccc1 (stereo not drawn) | > 100
93 | O/N=C(\c1ccccc1)N1CCCCC1 | > 100
